According to patent US11607446B2, “Personalized immunotherapy against several neuronal and brain tumors” (Immatics Biotechnologies GmbH, priority 2013, dated 2023):
Where no end group is shown, it is not given here.

Tested on: CD8+ T cells
Assay: In vitro immunogenicity of HLA-A*02 class I peptides: in vitro T-cell priming with aAPCs loaded with peptide/MHC complexes and anti-CD28 antibody, pMHC multimer readout
Assay type: cell-based, human
Settings: HLA-A*02 peptides; for Donors / Donors (percentage in brackets): healthy donors; for Donors: specific multimer+ CD8+ T-cell line after in vitro stimulation; for Wells: in vitro stimulated wells of healthy donors' CD8+ T cells, specific multimer+ readout

“AIIDGVESV (listed as Homo sapiens) [PTP-003]” was tested, and the Donors was “++++ (>70% = ++++)” and the Wells was “+ (<20% = +)”.
With “ALADIAVGV (listed as Homo sapiens) [ADORA3-001]” the Donors was “++ (20%-49 % = ++)” and the Wells was “+ (<20% = +)”.
With “ALAFKLDEV (listed as Homo sapiens) [SLC10A4-001]” the Donors was “+++ (50%-70% = +++)” and the Wells was “++ (20%-49 % = ++)”.
With “ALFNKGGSVFL (listed as Homo sapiens) [GPR98-001]” the Donors was “++ (20%-49 % = ++)” and the Wells was “+ (<20% = +)”.
For “ALGDIREV (listed as Homo sapiens) [ANKRD40-001]”, the Donors was “+++ (50%-70% = +++)” and the Wells was “+ (<20% = +)”.
For “ALTTLMHQL (listed as Homo sapiens) [PTP-001]”, the Donors was “++ (20%-49 % = ++)” and the Wells was “+ (<20% = +)”.
With “ALWAWPSEL (listed as Homo sapiens) [BCA-002]” the “Donors (percentage in brackets)” value was 100%, the Donors was “++++ (>70% = ++++)” and the Wells was “++++ (>70% = ++++)”.
For “AMTQLLAGV (listed as Homo sapiens) [TNC-001]”, the Donors was “++ (20%-49 % = ++)” and the Wells was “+ (<20% = +)”.
“AVAPGPWKV (listed as Homo sapiens) [MAGI2-001]” was tested, and the Donors was “++ (20%-49 % = ++)” and the Wells was “+ (<20% = +)”.
In the case of “AVVEFLTSV (listed as Homo sapiens) [DROSHA-001]”, the Donors is reported as “++ (20%-49 % = ++)” and the Wells is reported as “+ (<20% = +)”.
In the case of “EILDYIYEV (listed as Homo sapiens) [ASIC4-001]”, the Donors is reported as “++ (20%-49 % = ++)” and the Wells is reported as “+ (<20% = +)”.
With “FLDSKFYLL (listed as Homo sapiens) [MAP1B-001]” the Donors was “+++ (50%-70% = +++)” and the Wells was “+ (<20% = +)”.
For “FLLPDTDGLTAL (listed as Homo sapiens) [PTP-012]”, the Donors was “++ (20%-49 % = ++)” and the Wells was “+ (<20% = +)”.
With “FLVDGSWSI (listed as Homo sapiens) [COL20-001]” the Donors was “++ (20%-49 % = ++)” and the Wells was “+ (<20% = +)”.
For “FLWSDGVPL (listed as Homo sapiens) [BCA-003]”, the Donors was “++ (20%-49 % = ++)” and the Wells was “+ (<20% = +)”.
In the case of “FLYKVILSL (listed as Homo sapiens) [PTP-002]”, the Donors is reported as “+++ (50%-70% = +++)” and the Wells is reported as “+ (<20% = +)”.
In the case of “FLYNEALYSL (listed as Homo sapiens) [DPP3-001]”, the Donors is reported as “+++ (50%-70% = +++)” and the Wells is reported as “+ (<20% = +)”.
For “GLDPSSGAIHV (listed as Homo sapiens) [PCDHGC5-001]”, the “Donors (percentage in brackets)” value was 100%, the Donors was “++++ (>70% = ++++)” and the Wells was “+ (<20% = +)”.
“GLLDQIQAL (listed as Homo sapiens) [NLGN4X-002]” was tested, and the Donors was “++ (20%-49 % = ++)” and the Wells was “+ (<20% = +)”.
For “GLMEKIKEL (listed as Homo sapiens) [CPT1C-001]”, the Donors was “++ (20%-49 % = ++)” and the Wells was “+ (<20% = +)”.
“GLPSGAPPGV (listed as Homo sapiens) [MTSS1L-001]” was tested, and the “Donors (percentage in brackets)” value was 100%, the Donors was “++++ (>70% = ++++)” and the Wells was “+++ (50%-70% = +++)”.
In the case of “GLSEFTEYL (listed as Homo sapiens) [MAP1B-002]”, the Donors is reported as “++ (20%-49 % = ++)” and the Wells is reported as “+ (<20% = +)”.
“GLWHHQTEV (listed as Homo sapiens) [NRC AM-001]” was tested, and the “Donors (percentage in brackets)” value was 100%, the Donors was “++++ (>70% = ++++)” and the Wells was “+ (<20% = +)”.
With “GMMTAILGV (listed as Homo sapiens) [SLC35E1-002]” the Donors was “++ (20%-49 % = ++)” and the Wells was “+ (<20% = +)”.
“GVLENIFGV (listed as Homo sapiens) [PCNXL3-001]” was tested, and the Donors was “++ (20%-49 % = ++)” and the Wells was “+ (<20% = +)”.
With “ILFEINPKL (listed as Homo sapiens) [ABCA13-001]” the Donors was “++ (20%-49 % = ++)” and the Wells was “+ (<20% = +)”.
For “ILFPDIIARA (listed as Homo sapiens) [MAGEF1-001]”, the Donors was “++++ (>70% = ++++)” and the Wells was “++ (20%-49 % = ++)”.
For “ILIDWLVQV (listed as Homo sapiens) [CCNB1-002]”, the Donors was “+++ (50%-70% = +++)” and the Wells was “+ (<20% = +)”.
For “KIQEILTQV (listed as Homo sapiens) [IGF2BP3-001]”, the Donors was “+++ (50%-70% = +++)” and the Wells was “+ (<20% = +)”.
For “KLADQYPHL (listed as Homo sapiens) [SOX-001]”, the Donors was “++++ (>70% = ++++)” and the Wells was “+ (<20% = +)”.
For “KLCEGFNEV (listed as Homo sapiens) [CHCHD2-005]”, the Donors was “+++ (50%-70% = +++)” and the Wells was “+ (<20% = +)”.
For “KLFDSDPITVTV (listed as Homo sapiens) [CLU-001]”, the Donors was “++ (20%-49 % = ++)” and the Wells was “+ (<20% = +)”.
With “KLGDFGLATVV (listed as Homo sapiens) [DCA-001]” the Donors was “++ (20%-49 % = ++)” and the Wells was “+ (<20% = +)”.
In the case of “KLTDIQIEL (listed as Homo sapiens) [JAK-001]”, the Donors is reported as “++ (20%-49 % = ++)” and the Wells is reported as “+ (<20% = +)”.
With “KLVEFDFLGA (listed as Homo sapiens) [TACC3-001]” the Donors was “++ (20%-49 % = ++)” and the Wells was “+ (<20% = +)”.
“KVFAGIPTV (listed as Homo sapiens) [PTP-005]” was tested, and the Donors was “++++ (>70% = ++++)” and the Wells was “++ (20%-49 % = ++)”.
“KVFDEVIEV (listed as Homo sapiens) [GYG2-001]” was tested, and the Donors was “++ (20%-49 % = ++)” and the Wells was “+ (<20% = +)”.
“LLLGSPAAA (listed as Homo sapiens) [SEZ6L-001]” was tested, and the Donors was “++++ (>70% = ++++)” and the Wells was “+ (<20% = +)”.
“LLQDRLVSV (listed as Homo sapiens) [PLEKHA4-001]” was tested, and the Donors was “+++ (50%-70% = +++)” and the Wells was “+ (<20% = +)”.
“LLWGNAIFL (listed as Homo sapiens) [KIF1A-001]” was tested, and the Donors was “+++ (50%-70% = +++)” and the Wells was “++ (20%-49 % = ++)”.
For “LLYDAVHIV (listed as Homo sapiens) [GRIK3-001]”, the Donors was “++++ (>70% = ++++)” and the Wells was “+ (<20% = +)”.
For “LLYTGDLEAL (listed as Homo sapiens) [NPAS3-001]”, the Donors was “++ (20%-49 % = ++)” and the Wells was “+ (<20% = +)”.
In the case of “LTAPPEALLMV (listed as Homo sapiens) [NOC4-001]”, the Donors is reported as “+++ (50%-70% = +++)” and the Wells is reported as “+ (<20% = +)”.
“LTFGDVVAV (listed as Homo sapiens) [FABP7-001]” was tested, and the Donors was “++++ (>70% = ++++)” and the Wells was “+ (<20% = +)”.
In the case of MIWEHNVEV [PTP-013], the Donors is reported as “++++ (>70% = ++++)” and the Wells is reported as “+ (<20% = +)”.
For “MLFGHPLLVSV (listed as Homo sapiens) [USP11-001]”, the Donors was “++++ (>70% = ++++)” and the Wells was “++ (20%-49 % = ++)”.
With “NILEQIVSV (listed as Homo sapiens) [GRI-001]” the Donors was “++ (20%-49 % = ++)” and the Wells was “+ (<20% = +)”.
For “NLDTLMTYV (listed as Homo sapiens) [NLGN4X-001]”, the “Donors (percentage in brackets)” value was 100%, the Donors was “++++ (>70% = ++++)” and the Wells was “++ (20%-49 % = ++)”.
With “NLLAEIHGV (listed as Homo sapiens) [DPYSL4-001]” the Donors was “++ (20%-49 % = ++)” and the Wells was “+ (<20% = +)”.
With “RLGIKPESV (listed as Homo sapiens) [CSRP2-001]” the “Donors (percentage in brackets)” value was 100%, the Donors was “++++ (>70% = ++++)” and the Wells was “++ (20%-49 % = ++)”.
“RLISKFDTV (listed as Homo sapiens) [EIF4E-001]” was tested, and the Donors was “+++ (50%-70% = +++)” and the Wells was “+ (<20% = +)”.
With RVADYIVKV [SLC10A4-002] the Donors was “+++ (50%-70% = +++)” and the Wells was “+ (<20% = +)”.
“RVAS*PTSGV (RVASPTSGV; not fully specified (residue 4); printed as RVAS*PTSGV; listed as Homo sapiens) [IRS-001]” was tested, and the Donors was “+++ (50%-70% = +++)” and the Wells was “+ (<20% = +)”.
With “SLADFMQEV (listed as Homo sapiens) [CNOT1-002]” the Donors was “++ (20%-49 % = ++)” and the Wells was “+ (<20% = +)”.
In the case of “SLAERLFFQV (listed as Homo sapiens) [NAT8L-001]”, the Donors is reported as “++++ (>70% = ++++)” and the Wells is reported as “+ (<20% = +)”.
For “SLDTLMTYV (listed as Homo sapiens) [NLGN4Y-001]”, the Donors was “++++ (>70% = ++++)” and the Wells was “+ (<20% = +)”.
With “SLGLFLAQV (listed as Homo sapiens) [SCARA3-001]” the Donors was “++ (20%-49 % = ++)” and the Wells was “+ (<20% = +)”.
With “SLWGGDVVL (listed as Homo sapiens) [VPS13B-001]” the “Donors (percentage in brackets)” value was 100%, the Donors was “++++ (>70% = ++++)” and the Wells was “++ (20%-49 % = ++)”.
For “SLYKGLLSV (listed as Homo sapiens) [RAD54B-001]”, the “Donors (percentage in brackets)” value was 100%, the Donors was “++++ (>70% = ++++)” and the Wells was “++ (20%-49 % = ++)”.
With “TLLAAEFLKQV (listed as Homo sapiens) [CCT-001]” the Donors was “+++ (50%-70% = +++)” and the Wells was “+ (<20% = +)”.
“TLTNIIHNL (listed as Homo sapiens) [ORMDL1-002]” was tested, and the Donors was “+++ (50%-70% = +++)” and the Wells was “+ (<20% = +)”.
For “TLWYRAPEV (listed as Homo sapiens) [CDK4-001]”, the Donors was “++++ (>70% = ++++)” and the Wells was “++ (20%-49 % = ++)”.
With “TMLARLASA (listed as Homo sapiens) [CSP-001]” the Donors was “+++ (50%-70% = +++)” and the Wells was “+ (<20% = +)”.
In the case of “TMMSRPPVL (listed as Homo sapiens) [WLS-002]”, the Donors is reported as “+++ (50%-70% = +++)” and the Wells is reported as “+ (<20% = +)”.
For “VLCGPPPAV (listed as Homo sapiens) [NC AN-001]”, the “Donors (percentage in brackets)” value was 100%, the Donors was “++++ (>70% = ++++)” and the Wells was “+ (<20% = +)”.
For “VLIQDVPTL (listed as Homo sapiens) [GRI-002]”, the Donors was “++ (20%-49 % = ++)” and the Wells was “+ (<20% = +)”.
For “YLPTFFLTV (listed as Homo sapiens) [ELOVL2-001]”, the Donors was “++++ (>70% = ++++)” and the Wells was “+ (<20% = +)”.
